Data from article PMC2701622 (Journal of immunology (Baltimore, Md. : 1950), 2009).
No end group written: not given here.

The molecules below were run against HLA-B*2705 (Homo sapiens, UniProt P01889, D138H/D201E/E176V/E204Q/G107R/H137Y/K202T/N104T/N87E/Q56L/Q94K/R106L/R155S/R180L/S101D/S121N/S48T/Y140D/Y33H/Y91C) (assay: biochemical).
Format: binding

Molecule	IC50
ARKLLLDNL [reference compound]	74 nM
EREQTLNQL [reference compound]	2690 nM
SRHHAFCFR [reference compound]	42 nM
KRLAETLAL [KRLAETLAL, reference compound]	165 nM
RRIRQGLEL [Env868–876RL9]	13 nM
RRAIRGEQL [Vif123–131RL9]	28 nM
RRYNIIPVL	7.9 nM
RRPPLLPLLL	100 nM
YRRWIQLGL [Gag263–271YL9]	2.7 nM
SRQFGFIVL	128 nM
LRQGYRPVF [Env717–725LF9]	52 nM
RRLTARGLL [Nef246–254RL9]	9.9 nM
CC(C)C[C@H](NC(=O)[C@H](CCCNC(=N)N)NC(=O)[C@H](CC(C)C)NC(=O)[C@H](C)NC(=O)[C@H](CCC(=O)O)NC(=O)[C@@H]1CCCN1C(=O)[C@H](Cc1ccccc1)NC(=O)[C@H](CCCNC(=N)N)NC(=O)[C@@H](N)CO)C(=O)O [reference compound]	12 nM
RRDNRRGL [Vif172–179RL8]	175 nM
NRFSVAYML [reference compound]	9.8 nM
RRQDILDLWI [reference compound]	99 nM
RRHRILDIYL [Nef137–146RL10]	1.8 nM
ARLFGIRAK [reference compound]	133 nM
SRLEILNVL	80 nM

Molecule	IC50
KRQQELLRL [Env573–581KL9]	69 nM
SRLWPKIQGL	17 nM
IRILQRALF [Vpr62–70IF9]	14 nM
RRSRPSGDL [Nef8–16RL9]	351 nM
RRISGVDRY [reference compound]	21 nM
TRYPTILQL	97 nM
MRDHTITLL [reference compound]	52 nM
NRAKQVIKL [reference compound]	324 nM
KRGVFVLGF [Env524–532KF9]	13 nM
RRRWQQLL [Rev44–51RL8]	12 nM
DRLALLANL [reference compound]	181 nM
RRSPFLQVF	14 nM
RRSKEITVR [reference compound]	5.5 nM
SRTPYHVNL	22 nM
KRLRLIHLL [Rev12–20KL9]	1.1 nM
ARAALQELL	137 nM
CC(C)C[C@H](NC(=O)[C@H](CCC(=O)O)NC(=O)[C@@H](NC(=O)[C@H](CO)NC(=O)[C@H](CCCCN)NC(=O)[C@H](CCC(N)=O)NC(=O)[C@H](Cc1ccc(O)cc1)NC(=O)[C@H](CCCNC(=N)N)NC(=O)[C@@H](N)CCCNC(=N)N)[C@@H](C)O)C(=O)O [reference compound]	6.2 nM
SRYDPSISF	254 nM
